According to patent publication US20090258917A1 (priority 2005, published 2009):

These molecules were tested against T1, mPGES-1 (Homo sapiens, UniProt O14684) (assay: mPGES-1 assay: conversion of PGH2 to PGE2, PGE2 analysed by HPLC). Details: biological test described above; 10 μM or below; read-out: concentration giving 50% inhibition of mPGES-1.
T1 construct: made in house; host or cells: E. coli
T1 sequence (O14684 1-152): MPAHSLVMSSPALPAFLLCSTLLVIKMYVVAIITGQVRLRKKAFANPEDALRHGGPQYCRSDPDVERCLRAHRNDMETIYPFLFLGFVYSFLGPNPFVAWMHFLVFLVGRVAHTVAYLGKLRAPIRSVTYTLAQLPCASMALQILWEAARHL
Type: biochemical
Method: In the assay mPGES-1 catalyses the reaction where the substrate PGH2 is converted to PGE2. mPGES-1 is expressed in E. coli and the membrane fraction is dissolved in 20 mM NaPi-buffer pH 8.0 and stored at −80° C. […] The stop solution consists of H2O/MeCN (7/3), containing FeCl2 (25 mM) and HCl (0.15 M). The assay is performed at room temperature in 96-well plates.
The following is added chronologically to each well: • 1. 100 μL mPGES-1 in KPi-buffer with glutathione. Total protein concentration: 0.02 mg/mL. • 2. 1 μL inhibitor in DMSO. Incubation of the plate at room temperature for 25 minutes. • 3. 4 μL of a 0.25 mM PGH2 solution. Incubation of the plate at room temperature for 60 seconds. • 4. 100 μL stop solution. • 180 μL per sample is analyzed with HPLC.

Row | IC50 [µM] | Structure (SMILES)
1 | ≤ 10 | Cc1cc(C)c2oc(-c3ccc(C)c(NC(=O)c4ccc(Cl)cc4Cl)c3)nc2c1 [2,4-dichloro-N-[2-methyl-5-(5,7-dimethylbenzoxazol-2-yl)phenyl]benzamide]
2 | ≤ 10 | Cc1cc2nc(-c3cccc(NC(=O)c4cc(Cl)ccc4Cl)c3)oc2cc1C [2,5-dichloro-N-[3-(5,6-dimethylbemoxazol-2-yl)phenyl]benzamide]
3 | ≤ 10 | O=C(Nc1cccc(-c2nc3cc(Cl)cc(Cl)c3o2)c1)c1ccccc1Br [2-bromo-N-[3-(5,7-dichlorobenzoxazol-2-yl)phenyl]benzamide]
4 | ≤ 10 | Cc1ccc2oc(-c3cccc(NC(=O)c4ccccc4Cl)c3)nc2c1 [2-chloro-N-[3-(5-methylbenzoxazol-2-yl)phenyl]benzamide]
5 | ≤ 10 | O=C(Nc1ccc(Cl)c(-c2nc3cc(Cl)ccc3o2)c1)c1ccc([N+](=O)[O-])cc1Cl [2-chloro-N-[4-chloro-3-(5-chlorobenzoxazol-2-yl)phenyl]-4-nitrobenzamide]
6 | ≤ 10 | O=C(Nc1ccc(Cl)c(-c2nc3cc(Cl)ccc3o2)c1)c1ccccc1Cl [2-chloro-N-[4-chloro-3-(5-chlorobenzoxazol-2-yl)phenyl]benzamide]
7 | ≤ 10 | CC(C)c1ccc2oc(-c3cc(NC(=O)c4ccccc4Cl)ccc3Cl)nc2c1 [2-chloro-N-[4-chloro-3-(5-isopropylbenzoxazol-2yl)phenyl]benzamide]
8 | ≤ 10 | O=C(Nc1ccc(Cl)c(-c2nc3cc(Cl)ccc3o2)c1)c1ccccc1[N+](=O)[O-] [N-[4-chloro-3-(5-chlorobenzoxazol-2-yl)phenyl]-2-nitrobenzamide]
9 | ≤ 10 | CC(C)c1ccc2oc(-c3cc(NC(=O)c4ccccc4[N+](=O)[O-])ccc3Cl)nc2c1 [N-[4-chloro-3-(5-isopropylbenzoxazol-2-yl)phenyl]-2-nitrobenzamide]
10 | ≤ 10 | COc1ccc(C(=O)Nc2ccc(Cl)c(-c3nc4cc(C(C)C)ccc4o3)c2)cc1[N+](=O)[O-] [N-[4-chloro-3-(5-isopropylbenzoxazol-2-yl)phenyl]-4-methoxy-3-nitrobenzamide]
11 | ≤ 10 | CC(C)c1ccc2oc(-c3cc(NC(=O)c4cccnc4)ccc3Cl)nc2c1 [N-[4-chloro-3-(5-isopropylbenzoxazol-2-yl)phenyl]nicotinamide]

Row | Structure (SMILES) | IC50 [µM]
12 | CC(C)c1ccc2oc(-c3cccc(NC(=O)c4cc(Cl)ccc4Cl)c3)nc2c1 | ≤ 10

Same assay, conditions: mPGES-1 expressed in E. coli; 25 min preincubation with inhibitor, 60 s with PGH2, room temperature; read-out: IC50

Row | IC50 [µM] | Structure (SMILES)
13 | 1.9 | Cc1ccc2oc(-c3cccc(NC(=O)c4ccccc4[N+](=O)[O-])c3)nc2c1 [Example 3, N-[3-(5-Methylbenzoxazol-2-yl)phenyl]-2-nitrobenzamide]
14 | 2.3 | Cc1ccc2oc(-c3cc(NC(=O)c4ccccc4OC(F)(F)F)ccc3Cl)nc2c1 [Example 20, N-[4-Chloro-3-(5-methylbenzoxazol-2-yl)phenyl]-2-trifluoromethoxybenzamide]
15 | 2.6 | Cc1ccc2oc(-c3cc(NC(=O)c4ccccc4F)ccc3Cl)nc2c1 [Example 23, N-[4-Chloro-3-(5-methylbenzoxazol-2-yl)phenyl]-2-fluorobenzamide]
